Molecules are shown by their SMILES.

Experiment [1] has as its target DNA polymerase beta (Rattus norvegicus, UniProt P06766). The experiment in a line: Inhibition of rat DNA polymerase beta assessed as [3H]TTP incorporation after 60 mins by scintillation counting in presence of bovine serum albumin.
Experiment [2] concerns the target DNA polymerase beta (Rattus norvegicus) (UniProt P06766). The experiment in a line: Inhibition of rat DNA polymerase beta assessed as [3H]TTP incorporation at 50 ug/mL after 60 mins by scintillation counting.
The target is the same in experiment [3]. The experiment in a line: Inhibition of rat DNA polymerase beta assessed as [3H]TTP incorporation at 10 ug/mL after 60 mins by scintillation counting.

Broadly, the IC50 is the concentration that inhibits the measured activity by half. For orientation: inhibition means the relative decrease from the control value, in per cent. As for `Oc1cc(O)cc(CCCCCCCCCCCCCCc2cc(O)cc(O)c2)c1` [BISNORSTRIATOL], in experiment [1], the IC50 was 5.8 µM. The figures for the inhibition in experiment [2] and in experiment [3] were 79% and 50%, respectively.
The matching figures for `Oc1cc(O)cc(CCCCCC/C=C\CCCCCCc2cc(O)cc(O)c2)c1`: 6.5 µM, 92% and 44%.
`Oc1cc(O)cc(CCC/C=C\CCCCCCCCCc2cc(O)cc(O)c2)c1`: the IC50 in experiment [1] stood at 7.5 µM. Further, the inhibition was determined as 98% in experiment [2] and 51% in experiment [3].

These data come from ChEMBL document CHEMBL1141812, “bis-5-Alkylresorcinols from Panopsis rubescens that inhibit DNA polymerase beta” (J Nat Prod, 1999).
